From patent publication US20260232670A1, “TYRO3 SELECTIVE INHIBITORS AND USES THEREOF” (THE UNIVERSITY OF NORTH CAROLINA AT CHAPEL HILL, priority 2023, published 2026)

What was measured:
Assay type in all cases: biochemical
MERTK = biological target: T1, MERTK (Homo sapiens, UniProt Q12866); assay: Microfluidic capillary electrophoresis (MCE) kinase activity assay, Mer
T1 sequence (Q12866 21-999): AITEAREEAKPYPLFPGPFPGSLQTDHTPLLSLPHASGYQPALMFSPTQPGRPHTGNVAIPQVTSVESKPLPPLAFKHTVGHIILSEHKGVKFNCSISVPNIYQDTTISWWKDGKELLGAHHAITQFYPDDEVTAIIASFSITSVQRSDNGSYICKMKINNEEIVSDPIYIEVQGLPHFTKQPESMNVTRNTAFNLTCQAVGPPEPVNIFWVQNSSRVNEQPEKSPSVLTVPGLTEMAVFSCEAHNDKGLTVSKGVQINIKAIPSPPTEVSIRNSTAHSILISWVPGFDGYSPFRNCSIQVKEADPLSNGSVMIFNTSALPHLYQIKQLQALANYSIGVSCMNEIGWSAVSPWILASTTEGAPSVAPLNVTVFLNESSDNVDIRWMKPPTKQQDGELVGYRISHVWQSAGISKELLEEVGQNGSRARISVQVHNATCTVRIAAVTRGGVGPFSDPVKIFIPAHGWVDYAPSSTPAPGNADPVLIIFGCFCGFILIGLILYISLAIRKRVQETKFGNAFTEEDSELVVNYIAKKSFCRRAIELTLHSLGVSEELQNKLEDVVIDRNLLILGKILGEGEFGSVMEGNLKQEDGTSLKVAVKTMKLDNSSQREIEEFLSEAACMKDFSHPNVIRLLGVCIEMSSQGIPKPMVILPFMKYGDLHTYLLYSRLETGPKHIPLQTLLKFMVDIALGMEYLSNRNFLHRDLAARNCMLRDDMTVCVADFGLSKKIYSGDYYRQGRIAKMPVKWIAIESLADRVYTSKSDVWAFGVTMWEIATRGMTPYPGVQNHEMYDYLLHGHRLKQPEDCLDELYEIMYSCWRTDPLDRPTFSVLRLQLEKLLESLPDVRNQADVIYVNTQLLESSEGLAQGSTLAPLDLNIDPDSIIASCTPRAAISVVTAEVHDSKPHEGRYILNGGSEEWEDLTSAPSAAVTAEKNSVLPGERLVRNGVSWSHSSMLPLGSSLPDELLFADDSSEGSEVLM
Protocol: (§1) All reactions were terminated by addition of 20 μL of 70 mM EDTA. After a 180 min incubation, phosphorylated and unphosphorylated substrate peptides (Table 6) were separated in buffer supplemented with 1× CR-8 on a LabChip EZ Reader equipped with a 12-sipper chip. Data were analyzed using EZ Reader software.

TYRO3 = biological target: T2, TYRO3 (Homo sapiens, UniProt Q06418); assay: Microfluidic capillary electrophoresis (MCE) kinase activity assay, Tyro3
T2 sequence (Q06418 41-890): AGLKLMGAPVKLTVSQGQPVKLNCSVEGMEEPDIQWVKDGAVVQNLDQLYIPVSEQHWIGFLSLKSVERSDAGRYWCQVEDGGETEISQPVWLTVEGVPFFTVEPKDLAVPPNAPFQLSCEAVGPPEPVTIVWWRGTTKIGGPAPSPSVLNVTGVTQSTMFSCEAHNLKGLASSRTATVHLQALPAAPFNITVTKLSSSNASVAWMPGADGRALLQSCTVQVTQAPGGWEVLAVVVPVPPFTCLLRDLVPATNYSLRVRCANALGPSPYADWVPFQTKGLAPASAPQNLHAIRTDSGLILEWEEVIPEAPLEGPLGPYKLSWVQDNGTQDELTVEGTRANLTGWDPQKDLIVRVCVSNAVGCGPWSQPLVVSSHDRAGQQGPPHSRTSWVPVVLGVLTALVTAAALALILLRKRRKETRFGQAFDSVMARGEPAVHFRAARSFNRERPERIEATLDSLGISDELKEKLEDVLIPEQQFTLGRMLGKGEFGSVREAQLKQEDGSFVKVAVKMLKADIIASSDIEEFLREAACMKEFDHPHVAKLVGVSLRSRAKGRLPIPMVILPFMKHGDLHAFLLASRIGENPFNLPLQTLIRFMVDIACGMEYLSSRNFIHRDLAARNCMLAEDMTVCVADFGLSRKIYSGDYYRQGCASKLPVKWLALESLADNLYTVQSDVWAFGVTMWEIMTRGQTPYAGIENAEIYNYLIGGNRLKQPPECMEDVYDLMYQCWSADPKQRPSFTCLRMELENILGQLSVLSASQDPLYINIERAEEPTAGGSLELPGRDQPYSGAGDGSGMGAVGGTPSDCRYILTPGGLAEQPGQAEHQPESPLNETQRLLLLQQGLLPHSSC
Protocol: as §1

AXL = biological target: T3, AXL (Homo sapiens, UniProt P30530); assay: Microfluidic capillary electrophoresis (MCE) kinase activity assay, Axl; details: Table 2; MCE assay, ATP at Km
T3 sequence (P30530 26-894): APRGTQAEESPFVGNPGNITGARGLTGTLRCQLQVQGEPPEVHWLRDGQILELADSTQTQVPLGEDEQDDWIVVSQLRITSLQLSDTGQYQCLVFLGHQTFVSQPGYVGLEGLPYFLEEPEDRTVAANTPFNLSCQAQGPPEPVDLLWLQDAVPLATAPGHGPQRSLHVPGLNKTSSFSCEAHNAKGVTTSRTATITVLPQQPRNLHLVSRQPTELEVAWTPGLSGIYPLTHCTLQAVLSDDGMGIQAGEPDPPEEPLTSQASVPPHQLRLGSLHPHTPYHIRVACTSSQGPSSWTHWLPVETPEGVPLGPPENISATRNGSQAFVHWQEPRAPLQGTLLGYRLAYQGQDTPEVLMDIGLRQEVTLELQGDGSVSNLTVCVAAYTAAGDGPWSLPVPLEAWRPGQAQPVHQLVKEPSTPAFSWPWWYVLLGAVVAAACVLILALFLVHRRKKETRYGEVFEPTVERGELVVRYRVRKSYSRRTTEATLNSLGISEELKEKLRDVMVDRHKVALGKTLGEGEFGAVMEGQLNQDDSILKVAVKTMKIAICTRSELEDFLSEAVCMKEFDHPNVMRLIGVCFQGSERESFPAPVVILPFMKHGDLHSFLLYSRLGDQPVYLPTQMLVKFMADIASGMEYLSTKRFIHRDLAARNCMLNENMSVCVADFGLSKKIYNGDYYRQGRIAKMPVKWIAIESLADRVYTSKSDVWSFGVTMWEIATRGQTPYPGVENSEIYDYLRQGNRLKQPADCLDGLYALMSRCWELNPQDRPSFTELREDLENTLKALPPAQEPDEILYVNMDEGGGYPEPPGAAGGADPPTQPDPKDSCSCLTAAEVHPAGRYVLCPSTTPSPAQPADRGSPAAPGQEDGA
Protocol: as §1

## CN1CCN(Cc2ccc(-c3cn([C@H]4CC[C@H](O)CC4)c4nc(Nc5cc(F)cc(Cl)c5)ncc34)cc2)CC1 [Compound 7]
MERTK; Table 2, MCE assay, ATP at Km
  IC50: < 10 nM
TYRO3; Table 2, MCE assay, ATP at Km
  IC50: < 10 nM
AXL
  IC50: 10 to 100 nM

## CN1CCN(Cc2ccc(-c3cn([C@H]4CC[C@H](O)CC4)c4nc(Nc5cc(Cl)c(F)c(Cl)c5)ncc34)cc2)CC1 [Compound 8]
MERTK; Table 2, MCE assay, ATP at Km
  IC50: 10 to 100 nM
TYRO3; Table 2, MCE assay, ATP at Km
  IC50: < 10 nM
AXL
  IC50: 10 to 100 nM

## O[C@H]1CC[C@H](n2cc(-c3ccc(CN4CCC(F)(F)CC4)cc3)c3cnc(Nc4cc(C(F)(F)F)cc(C(F)(F)F)c4)nc32)CC1 [Compound 10]
MERTK; Table 2, MCE assay, ATP at Km
  IC50: 100 to 1000 nM
TYRO3; Table 2, MCE assay, ATP at Km
  IC50: 10 to 100 nM
AXL
  IC50: 100 to 1000 nM

## O[C@H]1CC[C@H](n2cc(-c3ccc(CNCCN4CCOCC4)cc3)c3cnc(Nc4cc(C(F)(F)F)cc(C(F)(F)F)c4)nc32)CC1 [Compound 19]
MERTK; Table 2, MCE assay, ATP at Km
  IC50: 100 to 1000 nM
TYRO3; Table 2, MCE assay, ATP at Km
  IC50: < 10 nM
AXL
  IC50: 100 to 1000 nM

## CN(C)C1CCN(Cc2ccc(-c3cn([C@H]4CC[C@H](O)CC4)c4nc(Nc5cc(F)cc(Cl)c5)ncc34)cc2)CC1 [Compound 22]
MERTK; Table 2, MCE assay, ATP at Km
  IC50: < 10 nM
TYRO3; Table 2, MCE assay, ATP at Km
  IC50: < 10 nM
AXL
  IC50: 10 to 100 nM

## O[C@H]1CC[C@H](n2cc(-c3ccc(CN4CCC(F)(F)CC4)cc3)c3cnc(Nc4cc(F)cc(Cl)c4)nc32)CC1 [Compound 23]
MERTK; Table 2, MCE assay, ATP at Km
  IC50: 10 to 100 nM
TYRO3; Table 2, MCE assay, ATP at Km
  IC50: < 10 nM
AXL
  IC50: 100 to 1000 nM

## CN1CCCN(Cc2ccc(-c3cn([C@H]4CC[C@H](O)CC4)c4nc(Nc5cc(F)cc(Cl)c5)ncc34)cc2)CC1 [Compound 24]
MERTK; Table 2, MCE assay, ATP at Km
  IC50: < 10 nM
TYRO3; Table 2, MCE assay, ATP at Km
  IC50: < 10 nM
AXL
  IC50: 10 to 100 nM

## CN1CCC(Nc2ccc(-c3cn([C@H]4CC[C@H](O)CC4)c4nc(Nc5cc(F)cc(Cl)c5)ncc34)cc2)CC1 [Compound 56]
MERTK; Table 8
  IC50: < 10 nM
TYRO3; Table 8
  IC50: < 10 nM

## CN1CCN(S(=O)(=O)c2ccc(-c3cn([C@H]4CC[C@H](O)CC4)c4nc(Nc5cc(F)cc(Cl)c5)ncc34)cc2)CC1 [Compound 63]
MERTK; Table 9
  IC50: < 10 nM
TYRO3; Table 9
  IC50: < 10 nM

## CN1CCN(Cc2ccc(-c3cn([C@H]4CC[C@H](O)CC4)c4nc(Nc5cccc(C(F)(F)F)c5)ncc34)cc2)CC1 [Compound 147]
MERTK; Table 2, MCE assay, ATP at Km
  IC50: < 10 nM
TYRO3; Table 2, MCE assay, ATP at Km
  IC50: < 10 nM

## CN1CCN(Cc2ccc(-c3cn([C@H]4CC[C@H](O)CC4)c4nc(Nc5cc(Cl)cc(C(F)(F)F)c5)ncc34)cc2)CC1 [Compound 148]
MERTK; Table 2, MCE assay, ATP at Km
  IC50: 10 to 100 nM
TYRO3; Table 2, MCE assay, ATP at Km
  IC50: < 10 nM

## CN1CCN(Cc2ccc(-c3cn([C@H]4CC[C@H](O)CC4)c4nc(Nc5cc(F)cc(C(F)(F)F)c5)ncc34)cc2)CC1 [Compound 149]
MERTK; Table 2, MCE assay, ATP at Km
  IC50: < 10 nM
TYRO3; Table 2, MCE assay, ATP at Km
  IC50: < 10 nM

## CC1CCN(Cc2ccc(-c3cn([C@H]4CC[C@H](O)CC4)c4nc(Nc5cc(F)cc(Cl)c5)ncc34)cc2)CC1 [Compound 151]
MERTK; Table 2, MCE assay, ATP at Km
  IC50: < 10 nM
TYRO3; Table 2, MCE assay, ATP at Km
  IC50: < 10 nM

## CN1CCN(Cc2ccc(-c3cn(C4CCOCC4)c4nc(Nc5cc(F)cc(Cl)c5)ncc34)cc2)CC1 [Compound 160]
MERTK; Table 10
  IC50: < 10 nM
TYRO3; Table 10
  IC50: < 10 nM

## CN1CCN(Cc2ccc(-c3cn([C@H]4CC[C@H](NC(=O)OC(C)(C)C)CC4)c4nc(Nc5cc(C(F)(F)F)cc(C(F)(F)F)c5)ncc34)cc2)CC1 [Compound 161]
TYRO3; Table 10
  IC50: 10 to 100 nM

## CN1CCN(Cc2ccc(-c3cn([C@H]4CC[C@H](NC(=O)OC(C)(C)C)CC4)c4nc(Nc5cc(F)cc(Cl)c5)ncc34)cc2)CC1 [Compound 163]
MERTK; Table 10
  IC50: 100 to 1000 nM
TYRO3; Table 10
  IC50: 10 to 100 nM

## CN1CCN(Cc2ccc(-c3cn([C@H]4CC[C@H](N)CC4)c4nc(Nc5cc(F)cc(Cl)c5)ncc34)cc2)CC1 [Compound 164]
MERTK; Table 10
  IC50: < 10 nM
TYRO3; Table 10
  IC50: < 10 nM

## CN1CCN(Cc2ccc(-c3cn(C4CC(CO)(CO)C4)c4nc(Nc5cc(C(F)(F)F)cc(C(F)(F)F)c5)ncc34)cc2)CC1 [Compound 165]
MERTK; Table 10
  IC50: 1000 to 30000 nM
TYRO3; Table 10
  IC50: < 10 nM

## CN1CCN(Cc2ccc(-c3cc(C4CCC5(CC4)OCCO5)n4nc(Nc5cc(F)cc(Cl)c5)ncc34)cc2)CC1 [Compound 170, N-(3-chloro-5-fluorophenyl)-5-(4-((4-methylpiperazin-1-yl)methyl)phenyl)-7-(1,4-dioxaspiro[4.5]decan-8-yl)pyrrolo[2,1-f][1,2,4]triazin-2-amine]
MERTK; Table 11
  IC50: 10 to 100 nM
TYRO3; Table 11
  IC50: < 10 nM

## CN1CCN(Cc2ccc(-c3cc(C4CCC(=O)CC4)n4nc(Nc5cc(F)cc(Cl)c5)ncc34)cc2)CC1 [Compound 171, 4-(2-((3-chloro-5-fluorophenyl)amino)-5-(4-((4-methylpiperazin-1-yl)methyl)phenyl)pyrrolo[2,1-f][1,2,4]triazin-7-yl)cyclohexan-1-one]
MERTK; Table 11
  IC50: 10 to 100 nM
TYRO3; Table 11
  IC50: < 10 nM

## CN1CCN(Cc2ccc(-c3cn([C@H]4CC[C@H](O)CC4)c4nc(Nc5cc(F)cc(Cl)c5)ncc34)cn2)CC1 [Compound 172]
MERTK; Table 12
  IC50: < 10 nM
TYRO3; Table 12
  IC50: < 10 nM

## CN1CCN(Cc2ccc(-c3cn([C@H]4CC[C@H](O)CC4)c4nc(Nc5cc(C(F)(F)F)cc(C(F)(F)F)c5)ncc34)cn2)CC1 [Compound 173]
MERTK; Table 12
  IC50: 100 to 1000 nM
TYRO3; Table 12
  IC50: < 10 nM

## CN1CCN(Cc2ccc(-c3cn([C@H]4CC[C@H](O)CC4)c4nc(Nc5ccsc5)ncc34)cc2)CC1 [Compound 174]
MERTK; Table 2, MCE assay, ATP at Km
  IC50: < 10 nM
TYRO3; Table 2, MCE assay, ATP at Km
  IC50: < 10 nM

## CN1CCN(Cc2ccc(-c3cn([C@H]4CC[C@H](O)CC4)c4nc(Nc5cncc(Cl)c5)ncc34)cc2)CC1 [Compound 175]
MERTK; Table 2, MCE assay, ATP at Km
  IC50: < 10 nM
TYRO3; Table 2, MCE assay, ATP at Km
  IC50: < 10 nM
